How the values were obtained:
[1] = tested on: HIV-1B41 and HIV-1JR-CSF Env pseudotyped virions; test: microbe, parasite or virus in culture; assay type: cell-based; settings: Human immunodeficiency virus 1, read-out: Median IC50
[2] = target: HIV-1 B41 SOSIP.664 gp140 trimer (Human immunodeficiency virus type 1, UniProt B3UES2, A505C/E513R/I563P/INS515RR/K514R/T609C); assay type: binding
[3] = tested on: HIV-1 B41 Env pseudotyped HIV-1; test: microbe, parasite or virus in culture; assay type: cell-based; settings: Human immunodeficiency virus 1, U87/CD4/CCR5, 48 h, read-out: IC50 B41
[4] = tested on: HIV-1 JR-CSF Env pseudotyped HIV-1; test: microbe, parasite or virus in culture; assay type: cell-based; settings: Human immunodeficiency virus 1, U87/CD4/CCR5, 48 h, read-out: IC50 JR-CSF
[5] = target: B41 SOSIP.664 gp140 trimer (Human immunodeficiency virus type 1, UniProt B3UES2, A505C/E513R/I563P/INS515RR/K514R/T609C); assay type: binding, HIV-1
in vitro = settings: human

## COc1cnc(-n2cnc(C)n2)c2[nH]cc(C(=O)C(=O)N3CCN(C(=O)c4ccccc4)CC3)c12 [BMS-626529, reference compound]
[1]
  IC50: 0.055 nM
[2]
  ka: 38900 M⁻¹ s⁻¹
  kd: 0.00059 s⁻¹
[3]
  IC50: 0.05 ± 0.006 nM
[4]
  IC50: 0.06 ± 0.005 nM

## COc1cnc(-n2cnc(C)n2)c2[nH]cc(C(=O)C(=O)N3CC4CN(C(=O)c5ccccc5)CC4C3)c12 (centres unmarked) [SC11]
[5]
  ka: 4330 M⁻¹ s⁻¹
  kd: 0.000287 s⁻¹
[1]
  IC50: ~2 nM
[3]
  IC50: 2 ± 0.2 nM
In vitro
  CC50 at 48 h: > 50000 nM
[4]
  IC50: 0.6 ± 0.1 nM

## COc1cnc(-n2cnc(C)n2)c2[nH]cc(C(=O)C(=O)N3CC(CSC(=O)c4ccccc4)C3)c12 [SC16]
[5]
  ka: 86200 M⁻¹ s⁻¹
  kd: 0.00598 s⁻¹
[1]
  IC50: 33 nM
[3]
  IC50: 37 ± 5 nM
In vitro
  CC50 at 48 h: > 50000 nM
[4]
  IC50: 29 ± 8 nM

## COc1cnc(-n2cnc(C)n2)c2[nH]cc(C(=O)C(=O)N(C)C3CN(C(=O)c4ccccc4)C3)c12 [SC18]
[5]
  ka: 15900 M⁻¹ s⁻¹
  kd: 0.0248 s⁻¹
[1]
  IC50: 246 nM
[3]
  IC50: 360 ± 12 nM
In vitro
  CC50 at 48 h: > 50000 nM
[4]
  IC50: 132 ± 4 nM

## COc1cnc(-n2cnc(C)n2)c2[nH]cc(C(=O)C(=O)N3CC4C=NN(c5nnnn5-c5ccccc5)C4C3)c12 (centres unmarked) [SC39]
[5]
  ka: 1390 M⁻¹ s⁻¹
  kd: 0.0381 s⁻¹
[1]
  IC50: 2730 nM
[3]
  IC50: 5320 ± 260 nM
In vitro
  CC50 at 48 h: > 50000 nM
[4]
  IC50: 143 ± 52 nM
